test system: Plasmodium falciparum; experiment: GSK_TCMDC: Inhibition of Plasmodium falciparum 3D7 in whole erythrocytes, using parasite LDH activity as an index of growth.; format: functional, organism-based; conditions: Plasmodium falciparum, 3D7

Structure (SMILES) | XC50
CCCC(CNCc1cccc(SC(F)(F)F)c1)CNc1cc(=O)c2ccccc2[nH]1 (stereo unspecified) | 715 nM
N[C@@H](Cc1cc(I)c(Oc2ccc(O)c(Cl)c2)c(I)c1)C(=O)O | 993 nM
CC(C)Sc1nncc(-c2cnnc(SC(C)C)n2)n1 | 141 nM
CC(=O)N(Cc1nc(-c2cc(Cl)c(Cl)s2)cs1)c1c(C)cccc1C | 333 nM
CC(=O)Nc1ccc(CN2Cc3ccc(NC(=O)Nc4ccc(Oc5ccccc5)cc4)cc3C2)s1 | 918 nM
N=c1c2nc(-c3c(F)cccc3Cl)[nH]c(=O)c2[nH]c(=O)n1-c1ccccc1 | 678 nM
N=C(/N=C(/NCCCCCCN/C(=N\C(=N)Nc1ccc(Cl)cc1)N1CCCCC1)N1CCCCC1)Nc1ccc(Cl)cc1 | 256 nM
COc1ccc(CCOc2c(C)nc(N)nc2N)cc1OC | 69.6 nM
CC(C)(C)c1ccc(NC(=O)c2cccc(CN3CCCN(Cc4cccc(C#N)c4)CC3)c2)cc1 | 755 nM
CCC[C@@H]([C@@H](CC(C)C)C(=O)N[C@@H](CCCCNC(=O)c1ccccn1)C(=O)Nc1nccs1)N(O)C=O | 46.6 nM
O=C(Nc1ccc(-c2cccc(-c3nc4ccccc4[nH]3)c2)cc1)c1cnn2cccnc12 | 597 nM
COC(=O)[C@@H](NC(=O)[C@H](CC(C)C)Nc1ccc(C#N)c2ccccc12)c1ccc(O)cc1 | 788 nM
O=C(C=Cc1ccc(Br)cc1)N1CCC(CCN2CCC(c3c[nH]c4ccccc34)CC2)CC1 | 919 nM
CCCCCCNc1c2ccccc2nc2ccccc12 | 949 nM
COc1cc(OC)c2c(C)cc(NCCCn3ccnc3)nc2c1 | 804 nM
CC(C)N1CCC(N(Cc2ccc(-c3ccc(Cl)cc3)cc2)C(=O)Cn2c(CCc3cccc(F)c3F)cc(=O)c3ccccc32)CC1 | 929 nM
c1ccc(CN2CCc3cc4nccc(N5CCNCC5)c4cc32)cc1 | 400 nM
CC(C)CNCc1cccc(-c2cccc(CN(C(=O)Nc3ccccc3)C3CCN(Cc4ccccc4)CC3)c2)c1 | 369 nM
COc1ccc2nccc([C@@H](O)CN3CCC(NC(=O)C(c4cc5ccccc5s4)N4CC(C)OC(C)C4)CC3)c2c1 (stereo partly specified) | 981 nM
O=c1cc(NCCCNC2CCOc3c(Cl)cc(Cl)cc32)[nH]c2ccccc12 (stereo unspecified) | 724 nM
O=C(Nc1ccc(Cl)cc1)Nc1cccc(-c2cccc(-c3nc4cc(C(F)(F)F)ccc4[nH]3)c2)c1 | 227 nM

Structure (SMILES) | XC50
CCOC(=O)c1nc(-c2cc(Cl)nc(Cl)c2)[nH]c1NC(=S)NCCCN1CCOCC1 | 925 nM
Cc1cc(N(C)C)nc(Nc2ccc(NC(=O)c3ccccc3F)cc2)n1 | 1160 nM
CCN(CC)CCNc1ccnc2[nH]c3ccc(C)cc3c12 | 669 nM
COc1cc(OC)c2c(C)cc(NCCCN3CCOCC3)nc2c1 | 1070 nM
COc1ccc(-c2ccc(NC(=O)c3cccc(F)c3)cc2)cc1CNC(C)C | 808 nM
O=S(=O)(NCCN1CCCC1)c1cccc(-c2ccc(CNCc3ccsc3)cc2)c1 | 804 nM
CNC(=O)Cc1ccc(C(=O)Nc2cccc(-c3cccc(-c4nc5cccc(C)c5[nH]4)c3)c2)cc1 | 530 nM
CC(=O)Oc1c(C(=O)C2CCC(C(C)(C)C)CC2)c(OC(C)=O)c2ccccc2c1OC(C)=O (stereo unspecified) | 268 nM
Cc1[nH]c2ccccc2c(=O)c1Br | 843 nM
O=C(/C=C/c1ccccc1O)NCCCCCN1CCC(c2c[nH]c3ccccc23)CC1 | 827 nM
O=C(Nc1ccc(C(=O)OCC2CCCN3CCCCC23)cc1)c1ccc([N+](=O)[O-])cc1 (stereo unspecified) | 716 nM
CCN(CCCN1CCCCC1)c1cc(C)nc(Nc2ccc(Br)cc2F)n1 | 548 nM
COc1ccc(NC(C)C(=O)Nc2ccc(Br)cc2)cc1S(=O)(=O)N1CCCCC1 (stereo unspecified) | 221 nM
CCC(CC(C)C(=O)O)=C(c1ccccc1)c1ccccc1 (stereo unspecified) | 224 nM
Cc1ccnc(NC(c2cccc(Cl)c2Cl)c2ccc3cccnc3c2O)c1 (stereo unspecified) | 1000 nM
NC1CCN(Cc2ccc(-c3cccc(-c4nc5ccccc5[nH]4)c3)cc2)C1 (stereo unspecified) | 849 nM
Cc1cc([N+](=O)[O-])ccc1NC(=O)Nc1cccc(C(F)(F)F)c1 | 721 nM
CC1(C)NC(N)=NC(=N)N1OCCCc1c(Cl)cccc1Cl | 3.2 nM
CC(C)(C)Oc1ccc(NC(=O)c2ccccc2O)cc1 | 1010 nM
OC(c1ccccc1)C1CN(CCc2ccccc2)CCC1(O)c1ccccc1 (stereo unspecified) | 1040 nM

Reference: ChEMBL document CHEMBL1157539, “Thousands of chemical starting points for antimalarial lead identification” (Nature, 2010)
